Laboratory results reported in the NIST ThermoML archive (doi:10.1021/je2007549).
Numbers after ± are expanded uncertainties.

Experiments:
[1] = 101 kPa, Liquid; for electrical conductivity: Direct current cell with electrodes; for viscosity: Falling or rolling sphere viscometry; for mass density: Vibrating tube method
[2] = xn = mol fraction of the nth substance listed; conditions: 101 kPa, Liquid; for electrical conductivity: Direct current cell with electrodes; for mass density: Vibrating tube method; for viscosity: n

With CC(C)C[C@H](N)C(=O)[O-].CCCC[P+](CCCC)(CCCC)CCCN [(3-aminopropyl)tributylphosphonium L-leucinate] the electrical conductivity ([1]; 298.15 K) was 0.008 ± 0.00016 S/m, the viscosity ([1]; 298.15 K) was 1227.9 ± 140 mPa·s and the mass density ([1]; 298.15 K) was 971.86 ± 5.1 kg/m3. For the same molecule, the electrical conductivity ([1]; 303.15 K) was 0.0108 ± 0.00022 S/m, the viscosity ([1]; 303.15 K) was 855.26 ± 85 mPa·s and the mass density ([1]; 303.15 K) was 968.8 ± 5.1 kg/m3. The electrical conductivity ([1]; 313.15 K) was 0.0185 ± 0.00037 S/m, the viscosity ([1]; 313.15 K) was 417.9 ± 34 mPa·s and the mass density ([1]; 313.15 K) was 962.68 ± 5 kg/m3. For the same molecule, the electrical conductivity ([1]; 323.15 K) was 0.0291 ± 0.00058 S/m, the viscosity ([1]; 323.15 K) was 224.29 ± 15 mPa·s and the mass density ([1]; 323.15 K) was 956.54 ± 5 kg/m3. It also gave an electrical conductivity ([1]; 333.15 K) of 0.0414 ± 0.00083 S/m, a viscosity ([1]; 333.15 K) of 130.46 ± 7.4 mPa·s and a mass density ([1]; 333.15 K) of 950.54 ± 4.9 kg/m3. For the same molecule, the electrical conductivity ([1]; 343.15 K) was 0.0605 ± 0.0012 S/m, the viscosity ([1]; 343.15 K) was 81.01 ± 4.1 mPa·s and the mass density ([1]; 343.15 K) was 944.58 ± 4.8 kg/m3.
CC(C)[C@H](N)C(=O)[O-].CCCC[P+](CCCC)(CCCC)CCCN [(3-aminopropyl)tributylphosphonium L-valinate] + O gave an electrical conductivity ([2]; 298.15 K, x2 = 0) of 0.00815 ± 0.00016 S/m, an electrical conductivity ([2]; 298.15 K, x2 = 0.25) of 0.0116 ± 0.00023 S/m and an electrical conductivity ([2]; 298.15 K, x2 = 0.5) of 0.0168 ± 0.00034 S/m. For the same molecule, the electrical conductivity ([2]; 298.15 K, x2 = 0.75) was 0.0414 ± 0.00083 S/m, the mass density ([2]; 298.15 K, x2 = 0) was 980.72 ± 5.2 kg/m3 and the mass density ([2]; 298.15 K, x2 = 0.25) was 982.82 ± 3.3 kg/m3. It also gave a mass density ([2]; 298.15 K, x2 = 0.5) of 987.18 ± 1.8 kg/m3, a mass density ([2]; 298.15 K, x2 = 0.75) of 995.89 ± 0.83 kg/m3 and a viscosity ([2]; 298.15 K, x2 = 0) of 1015.5 ± 50 mPa·s. It also gave a viscosity ([2]; 298.15 K, x2 = 0.25) of 734.22 ± 34 mPa·s, a viscosity ([2]; 298.15 K, x2 = 0.5) of 505.63 ± 22 mPa·s and a viscosity ([2]; 298.15 K, x2 = 0.75) of 237.96 ± 10 mPa·s. The electrical conductivity ([2]; 303.15 K, x2 = 0) was 0.011 ± 0.00022 S/m, the electrical conductivity ([2]; 303.15 K, x2 = 0.25) was 0.0158 ± 0.00032 S/m and the electrical conductivity ([2]; 303.15 K, x2 = 0.5) was 0.0237 ± 0.00047 S/m. The electrical conductivity ([2]; 303.15 K, x2 = 0.75) was 0.0547 ± 0.0011 S/m, the mass density ([2]; 303.15 K, x2 = 0) was 977.68 ± 5.2 kg/m3 and the mass density ([2]; 303.15 K, x2 = 0.25) was 979.76 ± 3.3 kg/m3. For the same molecule, the mass density ([2]; 303.15 K, x2 = 0.5) was 984.04 ± 1.8 kg/m3, the mass density ([2]; 303.15 K, x2 = 0.75) was 992.65 ± 0.83 kg/m3 and the viscosity ([2]; 303.15 K, x2 = 0) was 695.04 ± 34 mPa·s. It also gave a viscosity ([2]; 303.15 K, x2 = 0.25) of 508.12 ± 24 mPa·s, a viscosity ([2]; 303.15 K, x2 = 0.5) of 335.23 ± 15 mPa·s and a viscosity ([2]; 303.15 K, x2 = 0.75) of 168.93 ± 7.2 mPa·s. It also gave an electrical conductivity ([2]; 313.15 K, x2 = 0) of 0.0188 ± 0.00038 S/m, an electrical conductivity ([2]; 313.15 K, x2 = 0.25) of 0.0253 ± 0.00051 S/m and an electrical conductivity ([2]; 313.15 K, x2 = 0.5) of 0.0401 ± 0.0008 S/m. The electrical conductivity ([2]; 313.15 K, x2 = 0.75) was 0.0853 ± 0.0017 S/m, the mass density ([2]; 313.15 K, x2 = 0) was 971.57 ± 5.1 kg/m3 and the mass density ([2]; 313.15 K, x2 = 0.25) was 973.59 ± 3.2 kg/m3. It also gave a mass density ([2]; 313.15 K, x2 = 0.5) of 977.71 ± 1.8 kg/m3, a mass density ([2]; 313.15 K, x2 = 0.75) of 986.16 ± 0.82 kg/m3 and a viscosity ([2]; 313.15 K, x2 = 0) of 350.86 ± 17 mPa·s. It also gave a viscosity ([2]; 313.15 K, x2 = 0.25) of 259.52 ± 12 mPa·s, a viscosity ([2]; 313.15 K, x2 = 0.5) of 184.22 ± 8.2 mPa·s and a viscosity ([2]; 313.15 K, x2 = 0.75) of 92.15 ± 4 mPa·s. For the same molecule, the electrical conductivity ([2]; 323.15 K, x2 = 0) was 0.0294 ± 0.00059 S/m, the electrical conductivity ([2]; 323.15 K, x2 = 0.25) was 0.0392 ± 0.00078 S/m and the electrical conductivity ([2]; 323.15 K, x2 = 0.5) was 0.0635 ± 0.0013 S/m. It also gave an electrical conductivity ([2]; 323.15 K, x2 = 0.75) of 0.128 ± 0.0026 S/m, a mass density ([2]; 323.15 K, x2 = 0) of 965.45 ± 5 kg/m3 and a mass density ([2]; 323.15 K, x2 = 0.25) of 967.39 ± 3.2 kg/m3. It also gave a mass density ([2]; 323.15 K, x2 = 0.5) of 971.55 ± 1.8 kg/m3, a mass density ([2]; 323.15 K, x2 = 0.75) of 979.59 ± 0.81 kg/m3 and a viscosity ([2]; 323.15 K, x2 = 0) of 192.24 ± 9.4 mPa·s. It also gave a viscosity ([2]; 323.15 K, x2 = 0.25) of 145.61 ± 6.7 mPa·s, a viscosity ([2]; 323.15 K, x2 = 0.5) of 102.76 ± 4.5 mPa·s and a viscosity ([2]; 323.15 K, x2 = 0.75) of 56.03 ± 2.4 mPa·s. For the same molecule, the electrical conductivity ([2]; 333.15 K, x2 = 0) was 0.0447 ± 0.00089 S/m, the electrical conductivity ([2]; 333.15 K, x2 = 0.25) was 0.0563 ± 0.0011 S/m and the electrical conductivity ([2]; 333.15 K, x2 = 0.5) was 0.093 ± 0.0019 S/m. For the same molecule, the electrical conductivity ([2]; 333.15 K, x2 = 0.75) was 0.183 ± 0.0037 S/m, the mass density ([2]; 333.15 K, x2 = 0) was 959.5 ± 5 kg/m3 and the mass density ([2]; 333.15 K, x2 = 0.25) was 961.39 ± 3.1 kg/m3. The mass density ([2]; 333.15 K, x2 = 0.5) was 965.34 ± 1.8 kg/m3, the mass density ([2]; 333.15 K, x2 = 0.75) was 972.96 ± 0.81 kg/m3 and the viscosity ([2]; 333.15 K, x2 = 0) was 114.05 ± 5.5 mPa·s. For the same molecule, the viscosity ([2]; 333.15 K, x2 = 0.25) was 87.86 ± 4 mPa·s, the viscosity ([2]; 333.15 K, x2 = 0.5) was 65.77 ± 2.9 mPa·s and the viscosity ([2]; 333.15 K, x2 = 0.75) was 36.96 ± 1.6 mPa·s. It also gave an electrical conductivity ([2]; 343.15 K, x2 = 0) of 0.065 ± 0.0013 S/m, an electrical conductivity ([2]; 343.15 K, x2 = 0.25) of 0.0858 ± 0.0017 S/m and an electrical conductivity ([2]; 343.15 K, x2 = 0.5) of 0.132 ± 0.0026 S/m. For the same molecule, the electrical conductivity ([2]; 343.15 K, x2 = 0.75) was 0.258 ± 0.0052 S/m, the mass density ([2]; 343.15 K, x2 = 0) was 953.54 ± 4.9 kg/m3 and the mass density ([2]; 343.15 K, x2 = 0.25) was 955.37 ± 3.1 kg/m3. The mass density ([2]; 343.15 K, x2 = 0.5) was 959.05 ± 1.8 kg/m3, the mass density ([2]; 343.15 K, x2 = 0.75) was 966.29 ± 0.8 kg/m3 and the viscosity ([2]; 343.15 K, x2 = 0) was 72.45 ± 3.5 mPa·s. The viscosity ([2]; 343.15 K, x2 = 0.25) was 56.87 ± 2.6 mPa·s, the viscosity ([2]; 343.15 K, x2 = 0.5) was 43.81 ± 1.9 mPa·s and the viscosity ([2]; 343.15 K, x2 = 0.75) was 24.58 ± 1 mPa·s.
Work on CCCC[P+](CCCC)(CCCC)CCCN.C[C@H](N)C(=O)[O-] [(3-aminopropyl)tributylphosphonium L-alaninate] yielded an electrical conductivity ([1]; 298.15 K) of 0.0141 ± 0.00028 S/m, a viscosity ([1]; 298.15 K) of 804.88 ± 79 mPa·s and a mass density ([1]; 298.15 K) of 986.75 ± 5.3 kg/m3. It also gave an electrical conductivity ([1]; 303.15 K) of 0.0209 ± 0.00042 S/m, a viscosity ([1]; 303.15 K) of 561.4 ± 50 mPa·s and a mass density ([1]; 303.15 K) of 983.72 ± 5.2 kg/m3. For the same molecule, the electrical conductivity ([1]; 313.15 K) was 0.032 ± 0.00064 S/m, the viscosity ([1]; 313.15 K) was 291.07 ± 21 mPa·s and the mass density ([1]; 313.15 K) was 977.65 ± 5.2 kg/m3. For the same molecule, the electrical conductivity ([1]; 323.15 K) was 0.0464 ± 0.00093 S/m, the viscosity ([1]; 323.15 K) was 164.61 ± 10 mPa·s and the mass density ([1]; 323.15 K) was 971.62 ± 5.1 kg/m3. It also gave an electrical conductivity ([1]; 333.15 K) of 0.0649 ± 0.0013 S/m, a viscosity ([1]; 333.15 K) of 106.7 ± 5.7 mPa·s and a mass density ([1]; 333.15 K) of 965.71 ± 5 kg/m3. It also gave an electrical conductivity ([1]; 343.15 K) of 0.0884 ± 0.0018 S/m, a viscosity ([1]; 343.15 K) of 65.96 ± 3.3 mPa·s and a mass density ([1]; 343.15 K) of 959.97 ± 5 kg/m3.
For CC(C)[C@H](N)C(=O)[O-].CCCC[P+](CCCC)(CCCC)CCCN [(3-aminopropyl)tributylphosphonium L-valinate], the electrical conductivity ([1]; 298.15 K) was 0.00815 ± 0.00016 S/m, the viscosity ([1]; 298.15 K) was 1015.5 ± 110 mPa·s and the mass density ([1]; 298.15 K) was 980.72 ± 5.2 kg/m3. It also gave an electrical conductivity ([1]; 303.15 K) of 0.011 ± 0.00022 S/m, a viscosity ([1]; 303.15 K) of 695.04 ± 66 mPa·s and a mass density ([1]; 303.15 K) of 977.68 ± 5.2 kg/m3. The electrical conductivity ([1]; 313.15 K) was 0.0188 ± 0.00038 S/m, the viscosity ([1]; 313.15 K) was 350.86 ± 27 mPa·s and the mass density ([1]; 313.15 K) was 971.57 ± 5.1 kg/m3. It also gave an electrical conductivity ([1]; 323.15 K) of 0.0294 ± 0.00059 S/m, a viscosity ([1]; 323.15 K) of 192.24 ± 12 mPa·s and a mass density ([1]; 323.15 K) of 965.45 ± 5 kg/m3. For the same molecule, the electrical conductivity ([1]; 333.15 K) was 0.0447 ± 0.00089 S/m, the viscosity ([1]; 333.15 K) was 114.05 ± 6.2 mPa·s and the mass density ([1]; 333.15 K) was 959.5 ± 5 kg/m3. The electrical conductivity ([1]; 343.15 K) was 0.065 ± 0.0013 S/m, the viscosity ([1]; 343.15 K) was 72.45 ± 3.6 mPa·s and the mass density ([1]; 343.15 K) was 953.54 ± 4.9 kg/m3.
